Each compound was assayed against T1, p53 Y220C (Homo sapiens, UniProt P04637, Y220C) (assay: In vitro DNA binding activity assay (HTRF / TR-FRET): stabilization of p53 Y220C and increase of its DNA binding activity). Details: recombinant His-tagged p53 Y220C DNA binding domain (aa 94-312), biotin-labeled consensus DNA, incubated at 27° C. or 29° C. for 60 min.
T1 construct: The recombinant protein was a truncation mutant containing only amino acids 94-312 of p53; made in house; host or cells: E. coli
T1 sequence (P04637 94-312, change not shown): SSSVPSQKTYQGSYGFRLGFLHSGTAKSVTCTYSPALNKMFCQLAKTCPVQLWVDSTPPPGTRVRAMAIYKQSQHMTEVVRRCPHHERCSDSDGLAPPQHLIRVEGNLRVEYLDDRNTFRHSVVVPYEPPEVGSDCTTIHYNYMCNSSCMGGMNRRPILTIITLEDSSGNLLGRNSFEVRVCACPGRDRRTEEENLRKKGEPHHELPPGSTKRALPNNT
Format: biochemical
In short: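 Compounds from 4.5 mM DMSO stocks, 3-fold serial dilutions; room-temperature incubations of 15 and 20 min. SC150 = concentration raising DNA binding by 50% over no-compound control.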

Compound | SC150 (concentration of the compound required to increase the DNA binding activity by 50%)
COc1cc(S(C)(=O)=O)ccc1NCC#Cc1cc2c(N[C@H]3CC[C@@H](N4CC5(CCOCC5)C4)CC3)cccc2n1CC(F)(F)F [Compound 293A, 2-{3-[(4-methane-sulfonyl-2-methoxy-phenyl)amino]prop-1-yn-1-yl}-N-[(1S,4S)-4-{7-oxa-2-azaspiro[3.5]nonan-2-yl}cyclo-hexyl]-1-(2,2,2-trifluoro-ethyl)-1H-indol-4-amine] | + (+ = 0 μM ≤ SC150 < 0.05 μM)
COc1cc(S(=O)(=O)Nc2cc(C)on2)ccc1NCC#Cc1cc2c(N[C@H]3CC[C@@H](N(C)C)CC3)cccc2n1CC(F)(F)F [Compound 54A, 3-methoxy-N-(5-methyl-1,2-oxazol-3-yl)-4-{[3-(4-{[(1S,4S)-4-(dimethylamino)cyclohexyl]amino}-l-(2,2,2-trifluoroethyl)-1H-indol-2-yl)prop-2-yn-1-yl]amino}benzene-1-sulfonamide] | + (+ = 0 μM ≤ SC150 < 0.05 μM)
COc1cc(S(C)(=O)=O)ccc1NCC#Cc1cc2c(NC(=O)NC3CCN(CC(N)=O)CC3)cccc2n1CC(F)(F)F [Compound 16A, 2-(4-{[(2-{3-[(4-methanesulfonyl-2-methoxyphenyl)amino]prop-1-yn-1-yl}-1-(2,2,2-trifluoroethyl)-1H-indol-4-yl)carbamoyl]amino}piperidin-1-yl)acetamide] | ++++ (++++ = 0.2 μM ≤ SC150 < 1 μM)
COc1cc(C(=O)O)ccc1NCC#Cc1cc2c(N[C@H]3CC[C@H](N4CC5(COC5)C4)CC3)cccc2n1CC(F)(F)F [Compound 279A, 4-((3-(4-(((1R,4R)-4-(2-oxa-6-azaspiro[3.3]heptan-6-yl)cyclohexyl)amino)-1-(2,2,2-trifluoroethyl)-1H-indol-2-yl)prop-2-yn-1-yl)amino)-3-methoxybenzoic acid] | + (+ = 0 μM ≤ SC150 < 0.05 μM)
CN(C)[C@H]1CC[C@H](Nc2cccc3c2cc(C#CCNc2ccc(S(C)(=O)=O)cc2OCCO)n3CC(F)(F)F)CC1 [Compound 87A, 2-(5-methanesulfonyl-2-{[3-(4-{[(1R,4R)-4-(dimethylamino)cyclohexyl]amino}-1-(2,2,2-trifluoroethyl)-1H-indol-2-yl)prop-2-yn-1-yl]amino}phenoxy)ethan-1-ol] | + (+ = 0 μM ≤ SC150 < 0.05 μM)
COc1cc(C(=O)NCCO)ccc1NCC#Cc1cc2c(NC3CCN(C)CC3)cccc2n1CC(F)(F)F [Compound 496A] | + (+ = 0 μM ≤ SC150 < 0.05 μM)
CS(=O)(=O)c1ccc(NCC#Cc2cc3c(N[C@H]4CC[C@H](N5CC6(COC6)C5)CC4)cccc3n2CC(F)(F)F)c(OCCF)c1 [Compound 210A, N-((1R,4R)-4-(2-oxa-6-azaspiro[3.3]heptan-6-yl)cyclohexyl)-2-(3-((2-(2-fluoroethoxy)-4-(methylsulfonyl)phenyl)amino)prop-1-yn-1-yl)-1-(2,2,2-trifluoroethyl)-1H-indol-4-amine] | + (+ = 0 μM ≤ SC150 < 0.05 μM)
COc1cc(S(C)(=O)=O)ccc1NCC#Cc1cc2c(N[C@H]3CC[C@H](N4CCOCC4)CC3)cccc2n1CCF [Compound 176A, 1-(2-fluoroethyl)-2-{3-[(4-methane-sulfonyl-2-methoxy-phenyl)amino]prop-1-yn-1-yl}-N-[(1R,4R)-4-(morpholin-4-yl)cyclo-hexyl]-1H-indol-4-amine] | + (+ = 0 μM ≤ SC150 < 0.05 μM)
CCOc1cc(S(C)(=O)=O)ccc1NCC#Cc1cc2c(NC3CCN(CC(O)COC)CC3)cccc2n1CC(F)(F)F (centres unmarked) [Compound 631A, 1-{4-[(2-{3-[(2-ethoxy-4-methanesulfonylphenyl)amino]prop-1-yn-1-yl}-1-(2,2,2-trifluoroethyl)-1H-indol-4-yl)amino]piperidin-1-yl}-3-methoxypropan-2-ol] | + (+ = 0 μM ≤ SC150 < 0.05 μM)
CCC(=O)N(C)S(=O)(=O)c1ccc(NCC#Cc2cc3c(NC4CCN(CC(O)COC)CC4)cccc3n2CC(F)(F)F)c(OC)c1 (centres unmarked) [Compound 624A, N-(4-{[3-(4-{[1-(2-hydroxy-3-methoxypropyl)piperidin-4-yl]amino}-1-(2,2,2-trifluoroethyl)-1H-indol-2-yl)prop-2-yn-1-yl]amino}-3-methoxybenzenesulfonyl)-N-methylpropanamide] | + (+ = 0 μM ≤ SC150 < 0.05 μM)
CN1CCC(Nc2cccc3c2cc(C#CCNc2ccc(S(C)(=O)=O)cc2OC(F)(F)F)n3CC(F)(F)F)CC1 [Compound 466A] | + (+ = 0 μM ≤ SC150 < 0.05 μM)
CCOc1cc(S(C)(=O)=O)ccc1NCC#Cc1cc2c(N[C@H]3CC[C@H](N4CCOCC4)CC3)cccc2n1CC(F)(F)F [Compound 346A, 2-(3-((2-ethoxy-4-(methylsulfonyl)phenyl)amino)prop-1-yn-1-yl)-N-((1R,4R)-4-morpholinocyclohexyl)-1-(2,2,2-trifluoroethyl)-1H-indol-4-amine] | + (+ = 0 μM ≤ SC150 < 0.05 μM)
COc1cc(S(N)(=O)=O)ccc1NCC#Cc1cc2c(NC3CCN(CC(COC(=O)C(C)C)OC(=O)C(C)C)CC3)cccc2n1CC(F)(F)F (centres unmarked) [Compound 589A, 1-{4-[(2-{3-[(2-methoxy-4-sulfamoylphenyl)amino]prop-1-yn-1-yl}-1-(2,2,2-trifluoroethyl)-1H-indol-4-yl)amino]piperidin-1-yl}-3-[(2-methylpropanoyl)oxy]propan-2-yl 2-methylpropanoate] | ++ (++ = 0.05 μM ≤ SC150 < 0.1 μM)
CNC(=O)c1ccc(NCC#Cc2cc3c(N[C@H]4CC[C@H](N5CCCC5)CC4)cccc3n2CC(F)(F)F)c(OC)c1 [Compound 420A, 3-methoxy-N-methyl-4-{[3-(4-{[(1R,4R)-4-(pyrrolidin-1-yl)cyclohexyl]amino}-1-(2,2,2-trifluoroethyl)-1H-indol-2-yl)prop-2-yn-1-yl]amino}benzamide] | + (+ = 0 μM ≤ SC150 < 0.05 μM)
COc1cc(S(=O)(=O)N2CCN(C)CC2)ccc1NCC#Cc1cc2c(N[C@H]3CC[C@H](N(C)C)CC3)cccc2n1CC(F)(F)F [Compound 76A, (1R,4R)-N^4-{2-[3-({2-methoxy-4-[(4-methylpiperazin-1-yl)sulfonyl]phenyl}amino)prop-1-yn-1-yl]-1-(2,2,2-trifluoroethyl)-1H-indol-4-yl}-N^1,N^1-dimethyl-cyclohexane-1,4-diamine] | + (+ = 0 μM ≤ SC150 < 0.05 μM)
CN(C)[C@H]1CC[C@H](Nc2cccc3c2cc(C#CCNc2ccc(S(C)(=O)=O)cc2C(F)(F)F)n3CC(F)(F)F)CC1 [Compound 139A, (1R,4R)-N^4-[2-(3-{[4-methanesulfonyl-2-(trifluoromethyl)phenyl]amino}prop-1-yn-1-yl)-1-(2,2,2-trifluoroethyl)-1H-indol-4-yl]-N^1,N^1-dimethylcyclohexane-1,4-diamine] | + (+ = 0 μM ≤ SC150 < 0.05 μM)

Results, then the compound that gave them:

SC150 (concentration of the compound required to increase the DNA binding activity by 50%) | Compound
+ (+ = 0 μM ≤ SC150 < 0.05 μM) | COc1cc(S(=O)(=O)Nc2cc(C)on2)ccc1NCC#Cc1cc2c(NC3CCS(=O)(=O)CC3)cccc2n1CC(F)(F)F [Compound 1040A, 4-[(3-{4-[(1,1-dioxo-1λ^6-thian-4-yl)amino]-1-(2,2,2-trifluoroethyl)-1H-indol-2-yl}prop-2-yn-1-yl)amino]-3-methoxy-N-(5-methyl-1,2-oxazol-3-yl)benzene-1-sulfonamide]
+ (+ = 0 μM ≤ SC150 < 0.05 μM) | COc1cc(C(=O)N2CCC(O)CC2)ccc1NCC#Cc1cc2c(N[C@@H]3CCN(C)C[C@@H]3F)cccc2n1CC(F)(F)F [Compound 919A]
+ (+ = 0 μM ≤ SC150 < 0.05 μM) | CCC(=O)N1CCC(Nc2cccc3c2cc(C#CCNc2ccc(S(N)(=O)=O)cc2OC)n3CC(F)(F)F)CC1 [Compound 757A]
+ (+ = 0 μM ≤ SC150 < 0.05 μM) | COc1cc(S(C)(=O)=O)ccc1NCC#Cc1cc2c(NC3CCN(CCCS(C)(=O)=O)CC3)cccc2n1CC(F)(F)F [Compound 706A, 2-{3-[(4-methanesulfonyl-2-methoxyphenyl)amino]prop-1-yn-1-yl}-N-[1-(3-methanesulfonylpropyl)piperidin-4-yl]-1-(2,2,2-trifluoroethyl)-1H-indol-4-amine]
+ (+ = 0 μM ≤ SC150 < 0.05 μM) | CNC(=O)c1ccc(NCC#Cc2cc3c(N[C@H]4CCN(C)C[C@H]4F)cccc3n2CC(F)(F)F)c(OC)c1 [Compound 805A, 4-{[3-(4-{[(3R,4S)-3-fluoro-1-methylpiperidin-4-yl]amino}-1-(2,2,2-trifluoroethyl)-1H-indol-2-yl)prop-2-yn-1-yl]amino}-3-methoxy-N-methylbenzamide]
+ (+ = 0 μM ≤ SC150 < 0.05 μM) | COc1cc(S(C)(=O)=O)ccc1NCC#Cc1cc2c(N[C@H]3CCOC[C@H]3F)cccc2n1CC(F)(F)F [Compound 1025A, N-[(3S,4S)-3-fluorooxan-4-yl]-2-{3-[(4-methanesulfonyl-2-methoxyphenyl)amino]prop-1-yn-1-yl}-1-(2,2,2-trifluoroethyl)-1H-indol-4-amine]
+ (+ = 0 μM ≤ SC150 < 0.05 μM) | COCC(O)CN1CCC(Nc2cccc3c2cc(C#CCNc2ccc(S(=O)(=O)c4ccccc4)cc2OC)n3CC(F)(F)F)CC1 (centres unmarked) [Compound 691A, 1-(4-{[2-(3-{[4-(benzenesulfonyl)-2-methoxyphenyl]amino}prop-1-yn-1-yl)-1-(2,2,2-trifluoroethyl)-1H-indol-4-yl]amino}piperidin-1-yl)-3-methoxypropan-2-ol]

From patent US12428406B2 (PMV Pharmaceuticals, Inc., priority 2019, dated 2025)
